Some results are limits rather than exact numbers.

The data set can be described thus: DEX concentration in cochlear perilymph after intratympanic injection. Type of data set: in vivo, guinea pig. How it is done: (1) Preparation of guinea pig models: The guinea pig model used in this example is the pigmented guinea pig model. The surgical anesthesia is given by intramuscular injection of ketamine HCl (40 mg per kg guinea pig body weight). The remaining injections are muscle relaxant Rompun® (Xylazine)(10 mg/kg guinea pig body weight), prophylactic antibiotic chloramphenicol sodium succinate (30 mg/kg guinea pig body weight), and local anesthetic Lidocaine HCl (1%, 0.5 mL).
(2) Preparation for the Guinea pig surgery and the experiment: The surgery is carried out by intratympanic injection. The guinea pig is anesthetized and operated under a dissecting surgical microscope after confirmation. A 22G needle is used to puncture the eardrum, and 200 μL of the temperature-sensitive microbubbles drug (DEX) hydrogel of the present disclosure is applied into the middle ear cavity. The experiments are performed in the ultrasound microbubble treatment group (USM), round window soaking group (RWS), and the group treated with DEX only without MBs (DEX only without MBs). The groups are as follows: USM group is injected with the temperature-sensitive microbubbles drug hydrogel at 3W energy for 1 minute. […] The concentrations of DEX are measured in the cochlear perilymph of guinea pigs on day 1 and day 7 after injection.

With `C[C@@H]1C[C@H]2[C@@H]3CCC4=CC(=O)C=C[C@]4(C)[C@@]3(F)[C@@H](O)C[C@]2(C)[C@@]1(O)C(=O)CO` [DEX only without MBs, dexamethasone], the “DEX concentration in cochlear perilymph” value by setting is: (day 1 after injection, DEX only without MBs group) “about 17.38±2.51 μg/mL”; (day 7 after injection, DEX only group) below 3 ng/mL.

The values are drawn from patent US20220273799A1, “DRUG DELIVERY COMPOSITION, METHOD FORMING THE SAME AND METHOD FOR TREATING INNER EAR DISORDERS” (National Taiwan University of Science and Technology, priority 2021, published 2022).
